This is an account of results in patent US20260026506A1, “COMPOSITION FOR DISSOLVING AN OILY COMPOUND IN WATER” (AFFIX LABS OY, priority 2022, published 2026).

Data set [1] in a line: Dissolving DEET with the composition of the invention (Example 3, general procedure). In kind it is physicochemical. Conditions: composition of Table 3. The procedure: A general procedure to prepare the solution of an active compound in the composition of the invention is applied: • Deionized water was brought in a beaker equipped with a stirring bar and placed on a stirring plate. The cosolvent was added to the solution whilst stirring. Subsequently, the surfactant was added, and before the surfactant was dissolved also icaridin was added. Stirring is stopped when all components of the composition are dissolved.
The same test was applied to determine if the composition of the invention is also able to dissolve alternative water-insoluble compounds. In this experiment icaridin was switched for DEET and the general procedure was applied.

Data set [2] in a line: Dissolving icaridin in water with individual components only (Example 2, visual result). In kind it is physicochemical. The following applies: icaridin 5.0 wt.%. The procedure: In this experiment, it is tested if the combination of the cosolvent and the surfactant is required to dissolve icaridin or if individual components can also dissolve icaridin in water.
Deionized water was brought in a beaker equipped with a stirring bar and placed on a stirring plate. The (when applicable) cosolvent was added to the solution whilst stirring. Subsequently (when applicable) the surfactant was added, before this dissolved also (when applicable) icaridin was added. Stirring is stopped when everything is dissolved.

`CCN(CC)C(=O)c1cccc(C)c1` [DEET, N,N-diethyl-m-toluamide]: the “Amount dissolved in water by the composition of the invention” value in data set [1] is 5 wt. %. For `CCC(C)OC(=O)N1CCCCC1CCO` (centres unmarked) [icaridin], in data set [2], the “Solubility of icaridin in water (conclusion from Table 2)” value is “only soluble in water using the combination cosolvent and surfactants”.
